# Structures can show the parent of a compound that is named as a salt.
# Molecular target: TLX LBD (Homo sapiens, UniProt Q9Y466)
# Test: Differential scanning fluorimetry (DSF) on purified TLX LBD;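 also: thermal unfolding followed by Sypro-Orange fluorescence (excitation 465 nm, emission 610 nm) in 384-well plates, Tm taken from the first derivative of the denaturation curve, duplicate samples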
# Assay type: binding
# Design: cDNA fragments encoding human TLX LBD (a.a. 187–385) were cloned; His6 followed by TEV protease cleavage site (N); made in house; host or cells: E. coli BL21 (DE3) star
# Details: compound 500 µM
# Chain of TLX LBD (Q9Y466 187-385): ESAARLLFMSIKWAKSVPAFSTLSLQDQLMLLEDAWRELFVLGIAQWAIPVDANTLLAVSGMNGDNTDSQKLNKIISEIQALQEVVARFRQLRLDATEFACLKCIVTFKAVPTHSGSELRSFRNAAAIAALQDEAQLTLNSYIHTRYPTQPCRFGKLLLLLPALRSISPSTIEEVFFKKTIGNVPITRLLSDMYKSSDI
row,Compound,"hit in DSF screen (able to bind TLX LBD, Tm shift 0.9°C or more), Table S1"
1,O=NN(CCCl)C(=O)NCc1ccc[n+]([O-])c1 [1-(2-chloroethyl)-1-nitroso-3-[(1-oxidopyridin-1-ium-3-yl)methyl]urea],Hits from DSF
2,Cc1cc(N)c2ccccc2[n+]1CCCCCCCCCC[n+]1c(C)cc(N)c2ccccc21.[Cl-].[Cl-] [1-[10-(4-amino-2-methylquinolin-1-ium-1-yl)decyl]-2-methylquinolin-1-ium-4-amine chloride],Hits from DSF
3,Cc1ccc(S(=O)(=O)c2ccc([N+](=O)[O-])o2)cc1 [2-(4-methylphenyl)sulfonyl-5-nitrofuran],Hits from DSF
4,"O=[N+]([O-])c1cc(C(F)(F)F)cc([N+](=O)[O-])c1CCl [2-(chloromethyl)-1,3-dinitro-5-(trifluoromethyl)benzene]",Hits from DSF
5,COc1cc2c(cc1O)CC[C@@H]1[C@@H]2CC[C@]2(C)[C@@H](O)CC[C@@H]12 [2-Methoxyestradiol],Hits from DSF
6,"COC1CC(CC2CCC(C)C(C(C)C(=O)O)O2)OC2(OC(C)(C3CCC(C)(C4OC(C5OC(O)(CO)C(C)CC5C)CC4C)O3)CC2C)C1C (centres unmarked) [2-[6-[[2-[5-[5-[6-hydroxy-6-(hydroxymethyl)-3,5-dimethyloxan-2-yl]-3-methyloxolan-2-yl]-5-methyloxolan-2-yl]-9-methoxy-2,4,10-trimethyl-1,6-dioxaspiro[4.5]decan-7-yl]methyl]-3-methyloxan-2-yl]propanoic acid]",Hits from DSF
7,"O=C1c2ccccc2C(=O)C1C(c1ccc([N+](=O)[O-])cc1)C1C(=O)c2ccccc2C1=O [2-[(1,3-dioxoinden-2-yl)-(4-nitrophenyl)methyl]indene-1,3-dione]",Hits from DSF
8,CCCCCCCCCCCCC(O)C(=O)O (centres unmarked) [2-hydroxytetradecanoic acid],Hits from DSF
9,CCCCCC(CN1CCOCC1)C(=O)C=Cc1ccccc1 (centres unmarked) [4-(morpholin-4-ylmethyl)-1-phenylnon-1-en-3-one],Hits from DSF
10,O=C(O)c1ccc(NC(c2ccccc2)c2ccc3cccnc3c2O)cc1 (centres unmarked) [4-[[(8-hydroxyquinolin-7-yl)-phenylmethyl]amino]benzoic acid],Hits from DSF
11,"N#Cc1c(O)c2c(-c3ccc(-c4ccccc4O)cc3)csc2[nH]c1=O [6,7-Dihydro-4-hydroxy-3-(2'-hydroxy[1,1'-biphenyl]-4-yl)-6-oxo-thieno[2,3-b]pyridine-5-carbonitrile]",Hits from DSF
12,"CC(C)C1(Cl)CCC2C3(C)CCCC(C)(C(=O)O)C3CC(Cl)C2(Cl)C1Cl (centres unmarked) [7,8,8a,9-tetrachloro-1,4a-dimethyl-7-propan-2-yl-2,3,4,4b,5,6,8,9,10,10a-decahydrophenanthrene-1-carboxylic acid]",Hits from DSF
13,N#C/C(=C\c1ccc2ccccc2c1)C(=O)c1ccccc1 [(E)-2-(benzoyl)-3-naphthalen-2-ylprop-2-enenitrile],Hits from DSF
14,CCN1CCN(C(=O)Cc2ccc(Nc3ncc(F)c(Nc4ccc(C(=O)Nc5ccccc5Cl)cc4)n3)cc2)CC1 [Aurora A Inhibitor I],Hits from DSF
15,N#CCNC(=O)c1ccc(-c2ccnc(Nc3ccc(N4CCOCC4)cc3)n2)cc1 [CYT387],Hits from DSF
16,CCP(CC)CC.[Au+].[Cl-] [Chlorogold; Triethylphosphane],Hits from DSF
17,"C[C@@H](NCCCc1cccc(C(F)(F)F)c1)c1cccc2ccccc12 [Cinacalcet hydrochloride, reference compound]",Hits from DSF
18,"Clc1ccccc1C(c1ccccc1)(c1ccccc1)n1ccnc1 [Clotrimazole, reference compound]",Hits from DSF
19,CC(C)(C)OC(=O)N[C@H]1CCCCC/C=C\[C@@H]2C[C@@]2(C(=O)NS(=O)(=O)C2CC2)NC(=O)[C@@H]2C[C@@H](OC(=O)N3Cc4cccc(F)c4C3)CN2C1=O [Danoprevir],Hits from DSF
20,CO[C@H]1C[C@@H]2CC[C@@H](C)[C@@](O)(O2)C(=O)C(=O)N2CCCC[C@H]2C(=O)O[C@H]([C@H](C)C[C@@H]2CC[C@@H](OP(C)(C)=O)[C@H](OC)C2)CC(=O)[C@H](C)/C=C(\C)[C@@H](O)[C@@H](OC)C(=O)[C@H](C)C[C@H](C)/C=C/C=C/C=C/1C [Deforolimus],Hits from DSF
21,[Cl][Cd][Cl] [Dichlorocadmium],Hits from DSF
22,"CO[C@H]1C[C@@H]2CC[C@@H](C)[C@@](O)(O2)C(=O)C(=O)N2CCCC[C@H]2C(=O)O[C@H]([C@H](C)C[C@@H]2CC[C@@H](OCCO)[C@H](OC)C2)CC(=O)[C@H](C)/C=C(\C)[C@@H](O)[C@@H](OC)C(=O)[C@H](C)C[C@H](C)/C=C/C=C/C=C/1C [Everolimus (RAD001), Everolimus, reference compound]",Hits from DSF

row,Compound,"hit in DSF screen (able to bind TLX LBD, Tm shift 0.9°C or more), Table S1"
1,"CC(C)n1c(/C=C/C(O)CC(O)CC(=O)O)c(-c2ccc(F)cc2)c2ccccc21 (centres unmarked) [Fluvastatin Sodium, reference compound]",Hits from DSF
2,"CC(=O)N1CCN(c2ccc(OCC3COC(Cn4ccnc4)(c4ccc(Cl)cc4Cl)O3)cc2)CC1 (centres unmarked) [Ketoconazole, reference compound]",Hits from DSF
3,"CCOC(=O)N1CCC(=C2c3ccc(Cl)cc3CCc3cccnc32)CC1 [Loratadine, reference compound]",Hits from DSF
4,COc1cc(Nc2ncc3c(n2)-c2ccc(Cl)cc2C(c2c(F)cccc2OC)=NC3)ccc1C(=O)O [MLN8237],Hits from DSF
5,Cc1ccc(NC(=O)c2ccc(CN3CCN(C)CC3)cc2)cc1Nc1nc(-c2cccnc2)cs1 [Masitinib],Hits from DSF
6,"CC(C)c1cnn2c(NCc3ccccc3)cc(NCCCCCCN)nc12 [N5-(6-Aminohexyl)-3-isopropyl-N7-benzylpyrazolo[1,5-a]pyrimidine-5,7-diamine]",Hits from DSF
7,Nc1ncnc2c1c(-c1cccc(OCc3ccccc3)c1)cn2C1CC(CN2CCCC2)C1 (centres unmarked) [NVP-ADW742],Hits from DSF
8,COc1cccc2cc(-c3nc([C@H]4CC[C@H](C(=O)O)CC4)n4ncnc(N)c34)[nH]c12 [OSI-027],Hits from DSF
9,O=C(CCc1ccc(O)cc1)c1c(O)cc(O)cc1O [Phloretin],Hits from DSF
10,"CC(=O)[C@H]1CC[C@H]2[C@@H]3CCC4=CC(=O)CC[C@]4(C)[C@H]3CC[C@]12C [Progesterone, reference compound]",Hits from DSF
11,"O=C(c1ccc(OCCN2CCCCC2)cc1)c1c(-c2ccc(O)cc2)sc2cc(O)ccc12 [Raloxifene, reference compound]",Hits from DSF
12,"CC[C@H](CO)Nc1nc(NCc2ccccc2)c2ncn(C(C)C)c2n1 [Roscovitine (CYC202), Roscovitine]",Hits from DSF
13,Cn1cc(-c2ccc3nnc(Sc4ccc5ncccc5c4)n3n2)cn1 [SGX-523],Hits from DSF
14,Cc1cc(C(C)Nc2ccccc2)c2nc(N3CCOCC3)cc(=O)n2c1 (centres unmarked) [TGX-221],Hits from DSF
15,"C[C@]12CC[C@H]3[C@@H](CCC4=CC(=O)CC[C@@]43C)[C@@H]1CC[C@@H]2OC(=O)CCC1CCCC1 [Testosterone cypionate, reference compound]",Hits from DSF
16,CCC[CH2][Pb]([Cl])([CH2]CCC)[CH2]CCC [Tributyl(chloro)plumbane],Hits from DSF
17,"CCC1=C[C@@H]2CN(C1)Cc1c([nH]c3ccccc13)[C@@](C(=O)OC)(c1cc3c(cc1OC)N(C)[C@H]1[C@@](O)(C(=O)OC)[C@H](OC(C)=O)[C@]4(CC)C=CCN5CC[C@]31[C@@H]54)C2 [Vinorelbine, reference compound]",Hits from DSF
18,FC(F)c1nc2ccccc2n1-c1nc(N2CCOCC2)nc(N2CCOCC2)n1 [ZSTK474],Hits from DSF
19,"CC(=O)OC(C)(C)/C=C/C(=O)[C@](C)(O)[C@H]1[C@H](O)C[C@@]2(C)[C@@H]3CC=C4[C@@H](C[C@H](O)C(=O)C4(C)C)[C@]3(C)C(=O)C[C@]12C [[(E,6R)-6-[(2S,8S,9R,10R,13R,14S,16R,17R)-2,16-dihydroxy-4,4,9,13,14-pentamethyl-3,11-dioxo-2,7,8,10,12,15,16,17-octahydro-1H-cyclopenta[a]phenanthren-17-yl]-6-hydroxy-2-methyl-5-oxohept-3-en-2-yl] acetate]",Hits from DSF
20,CNC(=O)ON(C(C)=O)C(=O)NC [[acetyl(methylcarbamoyl)amino] N-methylcarbamate],Hits from DSF
21,CC(=O)[O][Pb]([O]C(C)=O)([c]1ccccc1)[c]1ccccc1 [[acetyloxy-di(phenyl)plumbyl] acetate],Hits from DSF
22,"CC(=O)[O][Hg][c]1c(C)c(C)c(C)c(C)c1C [acetyloxy-(2,3,4,5,6-pentamethylphenyl)mercury]",Hits from DSF

# Reference: paper PMC4060991, “The Human Orphan Nuclear Receptor Tailless (TLX, NR2E1) Is Druggable” (PLoS ONE, 2014)
